Source: patent US20240148664A1, “LIPID AND COMPOSITION” (SOGO PHARMACEUTICAL CO., LTD., priority 2021, published 2024)

How the values were obtained:
HEK293T cells = assay: Evaluation of protein expression effect (luciferase luminescence), Cell experiment 2; assay type: cell-based; conditions: lipid nanoparticle containing mRNA, 100 ng mRNA/20 μL per well, 24 hours, amount of luminescence as index
Procedure: (§1) For lipids (Ia), (Ib), and (Ie) of Examples 1, 2, and 5, a cell experiment was carried out by using HEK293T cells and NIH3T3 cells in order to evaluate lipid nanoparticles encapsulating an mRNA. By transfecting the cells with lipid nanoparticles and measuring the amount of a predetermined protein produced, the performance of the lipid nanoparticles used can be evaluated. Hereinafter, the procedure of the cell experiment will be shown.
(§2) A. Seeding of Cells • (i) A liquid medium (DMEM High glucose, FBS+, P/S+) was temperature-controlled in an incubator set at 37° C. • (ii) A cryotube containing cells was taken out from a −80° C. freezer and thawed at once in the incubator set at 37° C. • (iii) A test tube was subjected to a centrifuge to precipitate the cells. • (iv) The supernatant was aspirated, and the liquid medium was added and gently tapped to disperse the cells. • (v) A small amount of the cells-dispersed liquid medium was collected, and the number of cells was observed and counted under a microscope. • (vi) The cells were seeded in three 24-well black plates such that the number of cells was 1×10^4 cells per well. The 24-well black plates were placed in an incubator, and the cells were cultured for 24 hours under conditions of 37° C. and 5% CO2.
(§3) B. Transfection • (i) A lipid nanoparticle-containing solution including an mRNA was concentrated such that the mRNA concentration was 100 ng/20 μL (=0.005 μg/μL). • (ii) A liquid medium (DMEM High glucose, FBS-, P/S-) and FBS were warmed to 37° C., required amounts of the liquid medium and FBS were mixed (FBS concentration of liquid medium at this time: 12.5%), and the prepared liquid medium was filter-sterilized through a 0.22 μm filter. • (iii) The liquid medium supernatant in the 24-well black plates in which the cells were cultured was aspirated and 80 μL per well of the prepared liquid medium was added. • (iv) 20 μL per well of RFW and the lipid nanoparticle-containing solution adjusted to the above concentration was added. • (v) The 24-well black plates were placed in an incubator, and the cells were cultured for 24 hours under conditions of 37° C. and 5% CO2.
(§4) C. Evaluation of Protein Expression Effect (Detection of Gaussia Luciferase (GLuc))
(§5) Evaluation of the protein expression effect was carried out by using Gaussia Luciferase Assay Kit manufactured by Thermo Scientific. • (i) The cells cultured in B. (v) above were taken out from the incubator and allowed to stand at room temperature. • (ii) 20 μL of the supernatant in the plates was collected and added to a fresh 96-well white plate. • (iii) 100× Coelenterazine and Gaussia Glow Assay Buffer attached to the kit were returned to room temperature and mixed at 1:100 to prepare a solution. The prepared solution was added to the supernatant at 50 μL per well by using a multipipette. • (iv) The plate was shielded from light with aluminum foil, allowed to stand for 10 minutes, and then measured for the amount of luminescence with a plate reader (manufactured by TECAN, Infinite M200) (measurement time: 2 seconds), and the protein expression level was calculated by using the resulting amount of luminescence as an index.

NIH3T3 cells = assay: as above; assay type: cell-based; conditions: lipid nanoparticle containing mRNA, 100 ng mRNA/20 μL per well, 24 hours, amount of luminescence as index
Procedure: as §1, §2, §3, §4, §5

[1] = Measurement of particle size, polydispersity index and zeta potential of lipid nanoparticle (Zetasizer); assay type: physicochemical
Procedure: 30 μL of each of the dialyzed lipid nanoparticle-containing solutions obtained by the above operation was measured out, 800 μL of ultrapure water was added to dilute the lipid nanoparticle-containing solution, and the diluted preparation solution was used to measure the particle size (nm) and the polydispersity index (PDI) by using a Zetasizer (manufactured by Malvern Panalytical, Zetasizer nano Ultra). The particle size was evaluated by Z-average in ultrapure water. The zeta potential was measured by using pH 7.4 Tris-HCl as a dilute solution.

[2] = siRNA / mRNA encapsulation rate of lipid nanoparticle (RiboGreen); assay type: physicochemical; conditions: mRNA encapsulation rate of lipid nanoparticle (Table 3)
Procedure: The siRNA encapsulation rate and the mRNA encapsulation rate of the lipid nanoparticle were obtained as follows. First, a surfactant (Sigma-Aldrich, Triton (registered trademark), X-100 (reducing type)) was added to the lipid nanoparticle-containing solution to disrupt the lipid nanoparticle to release the encapsulated siRNA or mRNA. The amounts of the lipid nanoparticle-containing solution and the surfactant were adjusted such that the siRNA or the mRNA was 2 pmol and the surfactant was 1% in 40 μL of the solution after adding the surfactant to the lipid nanoparticle-containing solution. Next, the RiboGreen reagent (reagent that reacts with siRNA to emit fluorescence, manufactured by Thermo Fisher Scientific, Quant-iT (registered trademark) RiboGreen (registered trademark) RNA Assay Kit) was added to the solution, and the fluorescence intensity was measured under conditions of an excitation wavelength of 480 nm and a fluorescence wavelength of 520 nm with a fluorescence intensity meter (manufactured by TECAN, Infinite M200). Specifically, 75 μL of the RiboGreen reagent diluted to 1/2000 was added to a diluted solution obtained by adding 65 μL of citrate buffer to 10 μL of the solution, and the fluorescence intensity was measured. This makes it possible to relatively measure the total amount of the siRNA or the total amount of the mRNA present in the solution.
Subsequently, the RiboGreen reagent was added to the lipid nanoparticle-containing solution without adding a surfactant, and the fluorescence intensity was measured in the same manner with a fluorescence intensity meter. By not adding a surfactant, it is possible to relatively measure the amount of the siRNA or the mRNA free in the solution without being encapsulated in the lipid nanoparticle.
Then, the fluorescence intensity obtained from the solution to which the surfactant was added obtained as described above was fluorescence intensity a, and the fluorescence intensity thus obtained from the solution to which no surfactant was added obtained as described above was fluorescence intensity b, and according to the expression (a−b)/a×100, the siRNA encapsulation rate (%) or the mRNA encapsulation rate (%) of the lipid nanoparticle was obtained. Each of fluorescence intensity a and fluorescence intensity b is a value obtained by subtracting a blank from the arithmetic average value of the results of three measurements for each solution. The blank was measured by carrying out the same operation on a well containing water containing no cell or lipid nanoparticle.

[3] = tested on: HEK293T cells and NIH3T3 cells; assay: Evaluation of toxicity (CellTiter-Fluor Cell Viability Assay, CTF); assay type: cell-based; conditions: lipid nanoparticle containing mRNA; number of surviving cells relative to cells without lipid nanoparticle set at 1; one rating per lipid, printed on the HEK293T line
Procedure: as §1
as §2, with “CO2. […]” for “CO2.”
D. Evaluation of Toxicity (CellTiter-Fluor (Registered Trademark) Cell Viability Assay) • (i) The CellTiter-Fluor (registered trademark) Cell Viability (CTF) Assay Reagent was completely thawed in a 37° C. water bath. • (ii) GF-AFC Substrate was uniformly mixed by using a vortex mixer. • (iii) The required amounts of Buffer and GF-AFC Substrate attached to the CTF Assay Reagent (Kit) were mixed at a mixing ratio of 10 mL:10 μL. • (iv) 100 μL per well of the mixed CTF Reagent mixture was added to a 24-well black plate containing the cells cultured in B. (v) above, and the plate was quickly shielded from light with aluminum foil, and then shaken on a plate shaker for 30 seconds. • (v) The plate was placed in an incubator, […], and the cells were cultured for 30 minutes under conditions of 37° C. and 5% CO2. • (vi) The fluorescence intensity was measured with a plate reader (excitation wavelength of 380 nm, fluorescence wavelength of 505 nm). Based on the obtained measurement results, the number of surviving cells was calculated with the fluorescence intensity of cells to which no lipid nanoparticle was added set at 1. […]

PDI ([1]; lipid nanoparticle containing mRNA (Table 3)): 0.232
Zeta potential (mV) ([1]; lipid nanoparticle containing mRNA (Table 3), pH 7.4 Tris-HCl): −4.3 mV
Particle size (nm) ([1]; lipid nanoparticle containing mRNA, main lipid/DPPC/cholesterol=45/10/45 (r1: r1/DSPC/cholesterol/PEG2000-DMG=50/10/38.5/1.5)): 64.4 nm
Encapsulation rate (%) [2]: 93%
SMILES: CCCCCCCCCCCOC(=O)CCCCCN(CCO)CCCCCCCC(=O)OC(CCCCCCCC)CCCCCCCC [Reference Example 1, reference compound]
Protein expression level (HEK293T cells): 320,000
Protein expression level (NIH3T3 cells): 7,000
CTF Assay [3]: ⊚ (When the number of surviving cells was more than 0.80 and 1.00 or less, a rating of double-circle (excellent) was given)
